For assay [1], the system named is mouse embryogenic fibroblasts (MEF). The format is cell-based. The note with it: uninfected MEF, 6 hours, NacMDP 0.1, 1 and 10 μg/ml, LTB4 100 nM (FIG. 37).
For the next assay, the system named is IAV-infected MEF. Type of assay: cell-based, mouse.
For assay [2], the system named is human neutrophils. As to the kind of experiment: TLR2 protein expression on human neutrophils (flow cytometry). The format is cell-based. The conditions noted are these: LTB4 100 nM, 15-120 min, flow cytometry (FIG. 2). The protocol:
In FIG. 2A, cells were left untreated (1) or were stimulated with LTB4 (100 nM) for 15 (2), 30 (3), 60 (4) or 120 min (5). Cells were then fixed in paraformaldehyde and TLR2 expression was assessed by flow cytometry. Background cellular autofluorescence is represented by the dotted line (6).
In general terms: Flow cytometry measures light scatter and fluorescence of single cells or particles in a stream.

The subject of assay [3] is mouse embryonic fibroblasts (MEFs). The assay can be described thus: IFNβ secretion by wild type mouse embryonic fibroblasts. The format is cell-based. The conditions noted are these: MEFs from wild type mice, LTB4 alone or with Sendai virus (FIG. 36).
The test system of another assay is RIG-I. As to the kind of experiment: RIG-I-dependent promoter activation assay (luciferase) in BLT1-expressing HEK-293T cells. Type of assay: cell-based. The note with it: RIG-I-expressing vector.
Assay [4] concerns human neutrophils. The assay can be described thus: Cy3-CpG-ODN binding assay on human neutrophils (flow cytometry). Type of assay: cell-based. The note with it: LTB4 pretreatment 60 min, then Cy3-CpG-ODN 2216 for 4 h; with or without inhibitory CpG-ODN (FIG. 4E-F). As to the method:
(§1) In FIG. 4A, cells were left untreated (dotted line) or were stimulated with LTB4 (100 nM) for 15, 30, 60 or 120 min. Background cellular autofluorescence is represented by shaded histogram. Cells were then fixed in paraformaldehyde, permeabilized in methanol, and TLR9 expression was assessed by flow cytometry. In FIG. 4B, cells were pre-treated for 30 min with the high affinity LTB4 receptor antagonist U75302 (10 μM) prior to stimulation with LTB4 for 60 min. Cells were then fixed in paraformaldehyde, permeabilized in methanol, and TLR9 expression was assessed by flow cytometry. In FIGS. 4C-D, cells were stimulated with LTB4 or leukotrienes C4 (LTC4), leukotriene D4 (LTD4), the complement protein C5a or IL-8 for 60 min. Cells were then fixed in paraformaldehyde, permeabilized in methanol, and TLR9 expression was assessed by flow cytometry. In FIG. 4E, neutrophils were pretreated with LTB4 for 60 min. Following this pretreatment, neutrophils were incubated in the presence of CpG-ODN 2216 sequence (5′-G*G*GGGACGATCGTCG*G* G*G*G*G*-3′) (SEQ ID NO:1) that were tagged with cyanine-3 (Cy3) fluorochrome. After an incubation for 4 h with Cy3-CpG-ODN sequences, neutrophils were extensively washed with phosphate buffer and Cy3 expression (corresponding to the degree in CpG-ODN binding on human neutrophils) was assessed by flow cytometry. […]. […]

The test system of assay [5] is human neutrophils. The assay can be described thus: TLR9 protein expression by human neutrophils (flow cytometry). The format is cell-based. The protocol: as §1
For assay [6], the system named is Influenza A/PR/8/34 H1N1 (IAV). Type of assay: cell-based. The note with it: MEF, IAV 0.1 m.o.i., 24 hours, LTB4 100 nM, NacMDP 0.1 μg/ml (FIG. 39).
For the next assay, the system named is IPS-1. As to the kind of experiment: IPS-1-dependent promoter activation assay (luciferase) in BLT1-expressing HEK-293T cells. The format is cell-based. The note with it: IPS-1-expressing vector.
In assay [7] the test system is human neutrophils. The assay can be described thus: TLR mRNA expression by human neutrophils (RT-PCR). Type of assay: cell-based. The note with it: LTB4 100 nM or 1 μM, two hours. The protocol: Peripheral blood neutrophils or peripheral blood mononuclear cells were isolated from healthy donors and were purified by centrifugation over Ficoll™ separation medium gradient as already described (Larochelle B, Blood. 1998;92:291-299). Human neutrophils (2×10^6) were resuspended in culture medium and stimulated with a placebo solution (0.45% w/v NaCl containing 0.25% w/v dextrose, NS) or LTB4 (100 nM or 1 μM in placebo solution) for two hours. Following stimulation, total RNA was extracted and RT-PCR was performed using specific primers for human TLR2 (FIG. 1) and TLR7-9 (FIG. 3).

In assay [8] the test system is Influenza A/PR/8/34 H1N1 (IAV). As to the kind of experiment: IAV-infected mice: lung viral load, IL-6 and histology. Type of assay: in vivo. The note with it: 50 pfu IAV intranasally; iv. daily for three days, LTB4 1 μg/kg, NacMDP 2 mg/kg; four days post-infection (FIG. 40). As to the method: In FIG. 39, MEFs were generated and plated as described in Example VII. Cells were infected with IAV (0.1 m.o.i.) alone (−), LTB4 alone (100 nM) or with a combination of LTB4 and NacMDP (0.1 μg/ml) for 24 hours. Following infection, cell culture supernatants were harvested and assayed for viral load determination by standard plaque assay in MDCK cells. For in vivo assessment of the antiviral activity of LTB4 and NacMDP, 4-6 weeks old C57131/6 female mice (n=4/group) were infected intranasally (in.) with 50 plaque-forming units (pfu) of IAV (FIG. 40). Starting at day one post-infection, mice were treated daily for three days with either saline, LTB4 alone (1 μg/kg) or with a combination of LTB4 and NacMDP (2 mg/kg), via the intravenous (iv.) route. Four days post-infection, animals were sacrificed and viral loads were determined from triturated lungs by standard plaque assay in MDCK cells. […] In FIG. 39, * p≦0.05. […]
To further investigate the in vivo consequences associated with the treatment of IAV-infected mice with a combination of LTB4 and the NOD2 agonist NacMDP, 4-6 weeks old C57131/6 female mice (n=4/group) were infected as described in Example IX and treated with either saline or a combination of LTB4 and NacMDP also as described. In FIG. 41, four-day infected animals were sacrificed and IL-6 titers were determined from triturated lungs by ELISA. […]

Results on two compounds are retold here after US20170151204A1 (priority 2011, published 2017).

Entries after “also recorded” stand apart in the source; their conditions may differ.

In the case of `CC(=O)N[C@H]1C(O)O[C@H](CO)[C@@H](O)[C@@H]1O[C@H](C)C(=O)N[C@@H](C)C(=O)N[C@H](CCC(=O)O)C(N)=O` (some centres unmarked) [NacMDP, N-acetyl muramyl dipeptide, reference compound], the IL-6 secretion entry in [1] is recorded as “do not induce significant IL-6 secretion compared to background”; in the assay on IAV-infected MEF, “significantly enhance IL-6 secretion”.
For `CCCCC/C=C\C[C@@H](O)/C=C/C=C/C=C\[C@@H](O)CCCC(=O)O` [LTB4, 5S,12R-6,8,10,14(Z,E,E,Z)-eicosatetraenoic acid], the IL-6 secretion result in assay [1] is reported as “do not induce significant IL-6 secretion compared to background”; with IAV-infected MEF, “significantly enhance IL-6 secretion”. Also, the “TLR2 expression (protein)” value in the assay on human neutrophils [2] was “enhanced TLR2 expression; also recorded: upregulated TLR2 and TLR9 protein expression”. The “secretion of IFNβ” value in [3] is “induces secretion of IFNβ”. Also, the “NF-κB promoter activity (luciferase)” value in the assay on RIG-I (LTB4 stimulation 24 h (FIG. 28)) is listed as “enhances NF-κB as well as IFN-β promoter activity”; with IPS-1 (LTB4 stimulation 24 h (FIG. 30)) it was “induces NF-κB as well as IFN-β promoter activity”. The “IFN-β promoter activity (luciferase)” value is recorded as “enhances NF-κB as well as IFN-β promoter activity” with RIG-I (LTB4 stimulation 24 h (FIG. 29)) and “induces NF-κB as well as IFN-β promoter activity” in the assay on IPS-1 (LTB4 stimulation 24 h (FIG. 31)). Besides, the “CpG-ODN binding on human neutrophils (Cy3 expression)” value in the assay with human neutrophils [4] was “enhances CpG-ODN binding on human neutrophils in a TLR9-dependent manner”. For the same compound, in the assay on human neutrophils [5] (60 min stimulation (FIG. 4C-D)), the “TLR9 expression compared to LTC4, LTD4, C5a and IL-8” value was “potent inducer of TLR9 expression”. Further, in the assay with human neutrophils [5] (LTB4 100 nM, 15, 30, 60 or 120 min, with or without BLT1 antagonist U75302 10 μM (FIG. 4A-B)), the “TLR9 expression (protein)” value was “induces TLR9 expression on human neutrophils in a time-dependent manner; also recorded: upregulated TLR2 and TLR9 protein expression”. In assay [6], the “viral load (in vitro)” value is reported as “significant decrease in viral load”. Besides, the “expression of TLR2 mRNA” value with human neutrophils [7] (RT-PCR (FIG. 1)) is “stimulated by LTB4 in a dose-dependent form”. Further, the “mRNA expression of TLR7-9” value in the assay with human neutrophils [7] (RT-PCR (FIG. 3)) was “stimulated in a dose-dependent form”. Further, the “viral load in lungs (in vivo)” value in assay [8] is recorded as “significant decrease in viral load”.
